Key:
[1] = test system: Xanthomonas fragariae Xf349-9A; assay: In vitro growth inhibition (MIC); assay type: cell-based; details: TSB, 25°C, 48 h, OD 600 nm (Bioscreen C), three replicates, experiment repeated twice; MIC given as range
Procedure: (§1) Peptide conjugates were tested for in vitro growth inhibition of the plant-pathogenic bacteria E. amylovora PMV6076, Xanthomonas arboricola pv. pruni CFBP5563, X. fragariae Xf349-9A, X. axonopodis pv. vesicatoria 2133-2, P. syringae pv. actinidiae Psa3700.1.1, and P. syringae pv. syringae EPS94 (Fig. 1, Table SA). The corresponding monomers (flg15, BP13, Pep13, PIP1, BP16, BP100, BP143, BP387, BP475, and KSL-W) were included for comparison.
(§2) The following plant-pathogenic bacterial strains were used: Erwinia amylovora PMV6076 (Institut National de la Recherche Agronomique, Angers, France), Pseudomonas syringae pv. syringae EPS94 (Institut de Tecnologia Agroalimentària, University of Girona, Spain), Xanthomonas axonopodis pv. vesicatoria 2133-2, X. axonopodis pv. vesicatoria Xav206 (Xav) (D. F. Ritchie, Department of Plant Pathology, North Carolina State University), Pseudomonas syringae pv. actinidiae Psa3700.1.1, Xanthomonas fragariae Xf349-9A (Instituto Valenciano de Investigaciones Agrarias, Valencia, Spain), and Xanthomonas arboricola pv. pruni CFBP5563 (Collection Française de Bactéries Associées aux Plantes, Angers, France). All bacteria except for X. fragariae were stored in Luria Bertani (LB) broth supplemented with glycerol (20%) and maintained at −80°C. For X. fragariae, medium B ([80]) was used instead of LB. E. amylovora, X. arboricola pv. pruni, P. syringae pv. syringae, and P. syringae pv. actinidiae were scraped from the agar medium after growing for 24 h at 25°C, and X. axonopodis pv. vesicatoria and X. fragariae, after growing for 48 h at 25°C. The cell material was suspended in sterile water to obtain a suspension of 10^8 CFU mL^−1.
(§3) Lyophilized peptides were solubilized in sterile Milli-Q water to a final concentration of 1 mM and filter-sterilized through a 0.22-μm pore filter. […] Then, 20 μL of each dilution were mixed in a microtiter plate well with 20 μL of the corresponding suspension of the bacterial indicator, 160 μL of Trypticase soy broth (TSB) (bioMérieux, France) to a total volume of 200 μL. Three replicates for each combination of strain, compound, and concentration were used. Microbial growth was determined by optical density measurement at 600 nm (Bioscreen C; Labsystem, Helsinki, Finland). Microplates were incubated at 25°C with 20 s of shaking before hourly absorbance measurement for 48 h. The experiment was repeated twice. The MIC was taken as the lowest compound concentration with no growth at the end of the experiment.

[2] = test system: Pseudomonas syringae pv. actinidiae Psa3700.1.1; assay: In vitro growth inhibition (MIC); assay type: cell-based; details: TSB, 25°C, 48 h, OD 600 nm (Bioscreen C), three replicates, experiment repeated twice; MIC given as range
Procedure: as §1, §2, §3

[3] = test system: Xanthomonas arboricola pv. pruni CFBP5563; assay: In vitro growth inhibition (MIC); assay type: cell-based; details: TSB, 25°C, 48 h, OD 600 nm (Bioscreen C), three replicates, experiment repeated twice; MIC given as range
Procedure: as §1, §2, §3

[4] = test system: Pseudomonas syringae pv. syringae EPS94; assay: In vitro growth inhibition (MIC); assay type: cell-based; details: TSB, 25°C, 48 h, OD 600 nm (Bioscreen C), three replicates, experiment repeated twice; MIC given as range
Procedure: as §1, §2, §3

[5] = test system: Erwinia amylovora PMV6076; assay: In vitro growth inhibition (MIC); assay type: cell-based; details: TSB, 25°C, 48 h, OD 600 nm (Bioscreen C), three replicates, experiment repeated twice; MIC = lowest concentration with no growth, given as range
Procedure: as §1, §2, §3

horse erythrocytes = details: TRIS buffer pH 7.2, 1 h, 37°C, absorbance 540 nm, relative to melittin 100 μM, ± confidence interval (α = 0.05)
Procedure: The toxicity of peptide conjugates to eukaryotic cells was determined as the ability to lyse erythrocytes (Table SB).
The hemolytic activity of the compounds was evaluated by determining hemoglobin release from erythrocyte suspensions of horse blood (5% vol/vol) (Oxoid) as previously described ([45]). Blood was centrifuged at 6000g for 5 min, washed three times with TRIS buffer (10 mM TRIS, 150 mM NaCl, pH 7.2) and diluted 10 times. Compounds were solubilized in TRIS buffer at 750, 500, 300, and 100 μM and mixed with horse erythrocytes (1:1 vol/vol). The mixture was incubated with continuous shaking for 1 h at 37°C. Then, the tubes were centrifuged at 3500g for 10 min, 80-μL aliquots of the supernatant were transferred to 100-well microplates (Bioscreen) and diluted with 80 μL water, and the absorbance measured at 540 nm (Bioscreen). […] The percentage of hemolysis (H) was calculated using the equation H = 100 × ([Op − Ob]/[Om − Ob]), where Op is the density for a given compound concentration, Ob is that for the buffer, and Om is that for the melittin positive control.

tobacco leaves = assay: Effect of peptide infiltration on tobacco leaves (phytotoxicity); assay type: in vivo; details: 100 μL infiltrated into mesophyll, lesion diameter 48 h after infiltration, at least three leaves; ± confidence interval (α = 0.05)
Procedure: Peptide conjugates were also assayed for their toxicity in tobacco leaves (Fig. 3, Table SC). After 48 h of infiltration, melittin caused a necrotic area of 0.70 and 2.17 cm in diameter at 50 and 250 μM, respectively. The monomers were not phytotoxic at those concentrations; all of them led to lesions of ≤1.2 cm at 250 μM. All peptide conjugates were also less phytotoxic than melittin, causing necrotic lesions between 0.26 and 1.67 cm in diameter at 250 μM. In particular, 15 of the 30 conjugates led to a necrotic area of <1 cm at this concentration. In general, sequences incorporating BP13 were among the most phytotoxic.
Peptide conjugates were evaluated for their effect on infiltration on tobacco leaves as described previously ([41]). Peptide solutions of 50, 150, and 250 μM were infiltrated (100 μL) into the mesophylls of fully expanded tobacco leaves. Infiltrations were carried out in a single leaf, and for each peptide and dose, at least three leaves randomly distributed in different plants were inoculated. Control infiltrations with water (negative control) or melittin (positive control) at the same molar concentration were performed. The appearance of symptoms on the leaves was followed for 48 h after infiltration and measured as lesion diameter.

[6] = test system: Xanthomonas axonopodis pv. vesicatoria 2133-2; details: TSB, 25°C, 48 h, OD 600 nm (Bioscreen C), three replicates, experiment repeated twice; MIC given as range
Excerpt: The corresponding monomers (flg15, BP13, Pep13, PIP1, BP16, BP100, BP143, BP387, BP475, and KSL-W) were included for comparison.
as §2, §3

FKLFKKILKVL-KKLfKKILKYL-NH2 [BP13-BP143]
MIC, Xf [1]: 12.5 to 25 µM
MIC, Psa [2]: > 50 µM
MIC, Xap [3]: 6.2 to 12.5 µM
MIC, Pss [4]: > 50 µM
MIC, Ea [5]: > 50 µM
Percent hemolysis at 50 μM (horse erythrocytes): 100 ± 0.6%
Percent hemolysis at 150 μM (horse erythrocytes): 100 ± 3.7%
Percent hemolysis at 250 μM (horse erythrocytes): 100 ± 3.2%
Percent hemolysis at 375 μM (horse erythrocytes): 100 ± 10.6%
Size of the lesions in infiltrated tobacco leaves at 50 μM (tobacco leaves): 0.53 ± 0.18 cm
Size of the lesions in infiltrated tobacco leaves at 150 μM (tobacco leaves): 0.88 ± 0.15 cm
Size of the lesions in infiltrated tobacco leaves at 250 μM (tobacco leaves): 1.07 ± 0.37 cm
MIC, Xav [6]: 1.6 to 3.1 µM

FKLFKKILKVL-NH2 [BP13, reference compound]
MIC, Xf [1]: 25 to 50 µM
MIC, Psa [2]: 3.1 to 6.2 µM
MIC, Xap [3]: 6.2 to 12.5 µM
MIC, Pss [4]: 12.5 to 25 µM
MIC, Ea [5]: 25 to 50 µM
Percent hemolysis at 50 μM (horse erythrocytes): 5 ± 0.2%
Percent hemolysis at 150 μM (horse erythrocytes): 13 ± 2%
Percent hemolysis at 250 μM (horse erythrocytes): 27 ± 3%
Percent hemolysis at 375 μM (horse erythrocytes): 42 ± 3%
Size of the lesions in infiltrated tobacco leaves at 50 μM (tobacco leaves): 0.20 ± 0.24 cm
Size of the lesions in infiltrated tobacco leaves at 150 μM (tobacco leaves): 0.48 ± 0.15 cm
Size of the lesions in infiltrated tobacco leaves at 250 μM (tobacco leaves): 0.96 ± 0.19 cm
MIC, Xav [6]: 50 to 100 µM

KKLFKKILKKL-FKLFKKILKVL-NH2 [BP16-BP13]
MIC, Xf [1]: 12.5 to 25 µM
MIC, Psa [2]: 25 to 50 µM
MIC, Xap [3]: 6.2 to 12.5 µM
MIC, Pss [4]: 12.5 to 25 µM
MIC, Ea [5]: > 50 µM
Percent hemolysis at 50 μM (horse erythrocytes): 100 ± 4.0%
Percent hemolysis at 150 μM (horse erythrocytes): 100 ± 2.3%
Percent hemolysis at 250 μM (horse erythrocytes): 100 ± 8.5%
Percent hemolysis at 375 μM (horse erythrocytes): 100 ± 2.1%
Size of the lesions in infiltrated tobacco leaves at 50 μM (tobacco leaves): 0.68 ± 0.16 cm
Size of the lesions in infiltrated tobacco leaves at 150 μM (tobacco leaves): 1.15 ± 0.28 cm
Size of the lesions in infiltrated tobacco leaves at 250 μM (tobacco leaves): 1.52 ± 0.32 cm
MIC, Xav [6]: 1.6 to 3.1 µM

KKLFKKILKYL-FKLFKKILKVL-NH2 [BP100-BP13]
MIC, Xf [1]: 6.2 to 12.5 µM
MIC, Psa [2]: 25 to 50 µM
MIC, Xap [3]: 12.5 to 25 µM
MIC, Pss [4]: > 50 µM
MIC, Ea [5]: > 50 µM
Percent hemolysis at 50 μM (horse erythrocytes): 100 ± 9.4%
Percent hemolysis at 150 μM (horse erythrocytes): 100 ± 5.5%
Percent hemolysis at 250 μM (horse erythrocytes): 98 ± 3.3%
Percent hemolysis at 375 μM (horse erythrocytes): 99 ± 3.7%
Size of the lesions in infiltrated tobacco leaves at 50 μM (tobacco leaves): 0.73 ± 0.20 cm
Size of the lesions in infiltrated tobacco leaves at 150 μM (tobacco leaves): 1.36 ± 0.23 cm
Size of the lesions in infiltrated tobacco leaves at 250 μM (tobacco leaves): 1.46 ± 0.06 cm
MIC, Xav [6]: 6.2 to 12.5 µM

Reference: PMC9238401, “Peptide Conjugates Derived from flg15, Pep13, and PIP1 That Are Active against Plant-Pathogenic Bacteria and Trigger Plant Defense Responses” (Applied and Environmental Microbiology, 2022)
